Laboratory results from patent US8049020B2 (priority 2006, dated 2011).

Legend:
[1] = tested on: murine splenocytes; test: ConA mitogen-stimulated proliferation of murine splenocytes ([3H]-thymidine incorporation); type: cell-based, mouse (BALB/c); settings: for IC50: ConA 1 μg/ml, [3H]-thymidine incorporation, nonlinear regression, read-out: IC50 (dose of compound required to inhibit 50% of a proliferating population of murine splenocytes); for Effect on splenocyte proliferation (counts per minute vs concentration, FIG. 1 and 2): ConA-stimulated murine splenocytes, result in words
Description: I. ConA Mitogen-Stimulated Proliferation of Murine Splenocytes
The concanavalin A (ConA) cell proliferation assay was used to assess the effect of test homoserine lactone (HSL) compounds on T-cell activation and proliferation. Proliferation was assessed by the incorporation of [^3H]-thymidine into DNA. Eight-week-old female BALB/c mice were obtained from Harlan (Bicester, Oxon, UK) and given food and water ad libitum. Splenocyte suspensions were prepared by removing the spleens and placing them into RPMI 1640 medium. The spleens were forced through 70-μm-pore-size wire gauzes using the plunger from a 5-ml syringe to produce a single cell suspension. The cells were pelleted by centrifugation, and erythrocytes were lysed with 0.017 M Tris, 0.144 M ammonium chloride buffer, pH 7.2. Leucocytes were washed twice with RPMI 1640 medium with 2% (vol/vol) foetal calf serum (FCS) and resuspended in complete cell culture medium (CTCM) consisting of RPMI 1640 medium with 5% FCS, 2 mM L-glutamine, and 5×10^−5 M 2-mercaptoethanol. HSL compounds were tested at doubling down dilutions ranging from 1 mM to 0.1 μM in a final volume of 200 μl of CTCM, containing ConA (Sigma, Poole, UK) at 1 μg/ml and 100,000 spleen cells. Following incubation for 48 h at 37° C. in 5% CO2-air, 0.25 μCi[^3H]-thymidine (Amersham) in 10 μl volume made up in RPMI 1640 medium was added and the cells were incubated for a further 24 h. Cells were harvested onto fibreglass filters with a Packard filtermate harvester. After the addition of 25 μl of MicroScint-O (Packard) to each well, the filters were counted with the Packard TopCount scintillation counter.
Mitogen (Concanavalin A) induced murine splenocyte proliferation was indicated by the incorporation of tritated thymidine into the DNA in the mouse spleen cells as shown by counts per minute using the scintillation counter. The inhibitory effect of an HSL compound being tested on cell proliferation was indicated by a reduction in counts per minute.
The IC50 value, i.e. the dose of compound (micromolar) required to inhibit 50% of a proliferating population of murine splenocytes, was determined for 4-aza-OdDHL, 4-methyl-4-aza-OdDHL and for the compound N-(2-fluoro-4-aza-3-oxododecanoyl)-L-homoserine lactone (2-fluoro-4-aza-OdDHL).

[2] = tested on: E. coli JM109 harbouring the reporter plasmid pSB1075 (P. aeruginosa lasR gene and lasI promoter fused to luxCDABE); test: Autoinducer activity: lux-based bioluminescence bioreporter assay; type: cell-based; settings: 10 μM compound; 4 hours at 37° C.; relative to OdDHL
Description: Also determined for each of these compounds was the autoinducer activity as a measure of the ability of the compound to induce light production in a specifically designed bacterial bioreporter system. Autoinducer (A.I.) activity was measured by the ability of the test N-acyl homoserine lactone compound (AHL) to induce bioluminescence in E. coli containing a lux-based bioluminescence reporter plasmid. For detection of a long chain AHL, such as OdDHL, E. coli JM109 harbouring the reporter plasmid pSB1075 was used. This reporter contains the P. aeruginosa IasR gene and IasI promoter fused to IuxCDABE from P. luminescens and preferentially responds to AHLs with acyl chains of 10-14 carbons in length.
Bioassays were performed in 96 well microliter plates. Briefly, 10 μl of the compound being assessed was placed into a microliter well plate and serially diluted using LB broth to produce a concentration range from 100 μM to 100 fM. Similar dilutions were performed on a synthetic OdDHL and used as a positive control. One hundred microliters of an overnight biosensor strain was added to each well and light emission was measured following 4 hours incubation at 37° C. Light production was assessed as counts per second on Perkin Elmer TopCount apparatus calibrated to measure bioluminescence. Values are expressed as a percentage of the bioluminescence measured after exposure of the bioreporter to OdDHL for four hours at 37° C. Logarithmic regression analysis of the range of synthetic OdDHL dilutions typically returned coefficient of determination values above 0.96.

[3] = tested on: murine spleen cells; settings: Infection and Immunity, vol. 66, No. 1, January 1998; cited from earlier work
[4] = tested on: LPS-stimulated adherent murine peritoneal macrophages (TNF-α production); settings: Infection and Immunity, vol. 66, No. 1, January 1998; cited from earlier work

| Structure (SMILES) | IC50 [1] [µM] | AI activity (autoinducer activity, percentage of the bioluminescence measured after exposure to OdDHL) [2] [%] | Effect on splenocyte proliferation (counts per minute vs concentration, FIG. 1 and 2) [1] | Effect on ConA mitogen stimulated proliferation of murine spleen cells [3] | Effect on TNF-α production by LPS-stimulated adherent murine peritoneal macrophages [4] |
| --- | --- | --- | --- | --- | --- |
| CCCCCCCCNC(=O)C(F)C(=O)N[C@H]1CCOC1=O (stereo partly drawn) [2-fluoro-4-aza-OdDHL, 4-Aza-2-fluoro-3-oxododecanoyl-L-homoserine lactone] | 21.8 | 19.9 |  |  |  |
| CCCCCCCCN(C)C(=O)CC(=O)N[C@H]1CCOC1=O [4-methyl-4-aza-OdDHL, N-(4-aza-4-methyl-3-oxododecanoyl)-L-homoserine lactone] | 14.6 | 23.2 | inhibits splenoctye proliferation |  |  |
| CCCCCCCCCC(=O)CC(=O)N[C@H]1CCOC1=O [OdDHL, N-(3-oxododecanoyl) homoserine lactone, reference compound] | 12.7 | 100.0 | inhibits splenocyte proliferation | inhibiting | inhibiting |
| CCCCCCCCNC(=O)CC(=O)N[C@H]1CCOC1=O [Example 4-aza-OdDHL, N-(4-aza-3-oxododecanoyl)-L-homoserine lactone] | 17.1 | 2.8 | inhibits splenocyte proliferation |  |  |
